The results in this text go back to patent US9481654B2, “Compositions and methods for inhibition of the JAK pathway” (Rigel Pharmaceuticals, Inc., priority 2006, dated 2016).

SMILES strings stand for the structures. pIC50: −log10 of the molar value.

Assay [1] has as its system IFNγ induced ICAM-1 (CD54) up-regulation in A549 lung epithelial cells (JAK/Stat pathway). Nature of the assay: A549 Epithelial Line Stimulated with IFNγ (ICAM-1 surface expression, flow cytometry). It counts as cell-based, human. The settings on record: Table III Example 5. An outline of the steps: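 A549 cells (20,000/well, adhered overnight) pre-treated with compound 1 h, then IFNγ 75 ng/mL for 24 h; compound 30 μM–14 nM in 5% FBS, 0.3% DMSO. Surface ICAM-1 stained with APC anti-CD54, geometric mean by flow cytometry; dose-response gives EC50.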
Background: A flow cytometer gives signals particle by particle.

For assay [2], the system named is IFNγ induced ICAM-1 (CD54) up-regulation in U937 human monocytic cells (JAK/Stat pathway). Kind of assay: U937 IFNγ ICAM1 FACS Assay. It counts as cell-based. The settings on record: Table III Example 6; 10 ng/mL IFNγ, 18-24 hours. Put shortly:
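U937 cells (100,000 per well) were pre-incubated 30 min at 37 °C with serially 3-fold diluted compound, then stimulated with IFNγ for 18–24 h. Surface ICAM-1 was measured by flow cytometry as the geometric mean of ICAM-APC on gated live cells. EC50 values were calculated from dose curves, with % live cells also recorded.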

What is called pIC50 is the negative decadic logarithm of the IC50, by convention in mol/L. On to `Cc1ccc(Nc2ncc(C)c(Nc3ccc(CNS(=O)(=O)C4CC4)c(Cl)c3)n2)cc1S(N)(=O)=O` [Compound I-125, N2-(3-aminosulfonyl-4-methyl)phenyl-N4-(3-chloro-4-cyclopropylsulfonylaminomethyl)phenyl-5-methyl-2,4-pyrimidinediamine], for which the results for the pIC50 in assay [1] and in assay [2] were 5.40 and 6.41, respectively.
In the case of `Cc1ccc(Nc2ncc(C)c(Nc3ccc(CN(C)S(=O)(=O)C4CC4)cc3)n2)cc1S(N)(=O)=O` [Compound I-126, N2-(3-aminosulfonyl-4-methyl)phenyl-N4-[4-(N-cyclopropylsulfonyl-N-methyl)aminomethyl]phenyl-5-methyl-2,4-pyrimidinediamine], the pIC50 in assay [1] was 5.25; in assay [2], 6.65.
Take `Cc1cnc(Nc2cccc(S(=O)(=O)NCc3ccccc3)c2)nc1Nc1ccc(CNS(=O)(=O)C2CC2)cc1` [Compound I-154, N2-(3-benzylaminosulfonyl)phenyl-N4-(4-cyclopropylsulfonylaminomethyl)phenyl-5-methyl-2,4-pyrimidinediamine]: the pIC50 is 5.20 in assay [1] and 6.73 in assay [2].
Consider `CNS(=O)(=O)c1cccc(Nc2ncc(C)c(Nc3ccc(CNS(=O)(=O)C4CC4)cc3)n2)c1` [Compound I-161, N4-(4-cyclopropylsulfonylaminomethyl)phenyl-5-methyl-N2-(3-methylaminosulfonyl)phenyl-2,4-pyrimidinediamine], for which the pIC50 in assay [1] was 4.61; in assay [2], 7.29.
The corresponding values for `CNS(=O)(=O)c1cccc(Nc2ncc(C)c(Nc3cccc(CNS(=O)(=O)C4CC4)c3)n2)c1` [Compound I-162, N4-(3-cyclopropylsulfonylaminomethyl)phenyl-5-methyl-N2-(3-methylaminosulfonyl)phenyl-2,4-pyrimidinediamine] are 5.72 and 6.81.
For `C#CCNS(=O)(=O)c1ccc(Nc2ncc(C)c(Nc3ccc(CNS(=O)(=O)C4CC4)cc3)n2)cc1` [Compound I-164, N4-(4-cyclopropylsulfonylaminomethyl)phenyl-5-methyl-N2-(4-propargylaminosulfonyl)phenyl-2,4-pyrimidinediamine], in that order: 4.86 and 6.80.
For `C#CCNS(=O)(=O)c1cccc(Nc2ncc(C)c(Nc3ccc(CNS(=O)(=O)C4CC4)cc3)n2)c1` [Compound I-165, N4-(4-cyclopropylsulfonylaminomethyl)phenyl-5-methyl-N2-(3-propargylaminosulfonyl)phenyl-2,4-pyrimidinediamine], the figures for the pIC50 in assay [1] and in assay [2] were 5.05 and 6.82, respectively.
The corresponding values for `Cc1cnc(Nc2cccc(S(=O)(=O)NC(C)C)c2)nc1Nc1ccc(CNS(=O)(=O)C2CC2)cc1` [Compound I-173, N4-(4-cyclopropylsulfonylaminomethyl)phenyl-N2-(3-isopropylaminosulfonyl)phenyl-5-methyl-2,4-pyrimidinediamine] are 5.72 and 6.96.
As for `CCNS(=O)(=O)c1ccc(Nc2ncc(C)c(Nc3ccc(CNS(=O)(=O)C4CC4)cc3)n2)cc1` [Compound I-175, N4-(4-cyclopropylsulfonylaminomethyl)phenyl-N2-(4-ethylaminosulfonyl)phenyl-5-methyl-2,4-pyrimidinediamine], the pIC50 is 5.63 in assay [1] and 7.14 in assay [2].
For `CCNS(=O)(=O)c1cccc(Nc2ncc(C)c(Nc3ccc(CNS(=O)(=O)C4CC4)cc3)n2)c1` [Compound I-176, N4-(4-cyclopropylsulfonylaminomethyl)phenyl-N2-(3-ethylaminosulfonyl)phenyl-5-methyl-2,4-pyrimidinediamine], the results for the pIC50 in assay [1] and in assay [2] were 4.98 and 7.32, respectively.
As to `CCCNS(=O)(=O)c1cccc(Nc2ncc(C)c(Nc3ccc(CNS(=O)(=O)C4CC4)cc3)n2)c1` [Compound I-178, N4-(4-cyclopropylsulfonylaminomethyl)phenyl-5-methyl-N2-(3-propylaminosulfonyl)phenyl-2,4-pyrimidinediamine], the values for the pIC50 in assay [1] and in assay [2] were 5.26 and 7.24, respectively.
Turning to `Cc1cnc(Nc2cccc(S(=O)(=O)NCC3CC3)c2)nc1Nc1ccc(CNS(=O)(=O)C2CC2)cc1` [Compound I-180, N2-(3-cyclopropylmethylaminosulfonyl)phenyl-N4-(4-cyclopropylsulfonylaminomethyl)phenyl-5-methyl-2,4-pyrimidinediamine], the results for the pIC50 in assay [1] and in assay [2] were 5.65 and 7.21, respectively.
For `COCCCNS(=O)(=O)c1ccc(Nc2ncc(C)c(Nc3ccc(CNS(=O)(=O)C4CC4)cc3)n2)cc1` [Compound I-181, N4-(4-cyclopropylsulfonylaminomethyl)phenyl-N2-[4-(3-methoxypropyl)aminosulfonyl]phenyl-5-methyl-2,4-pyrimidinediamine], in that order: 5.63 and 6.62.
The corresponding values for `COCCCNS(=O)(=O)c1cccc(Nc2ncc(C)c(Nc3ccc(CNS(=O)(=O)C4CC4)cc3)n2)c1` [Compound I-182, N4-(4-cyclopropylsulfonylaminomethyl)phenyl-N2-[3-(3-methoxypropyl)aminosulfonyl]phenyl-5-methyl-2,4-pyrimidinediamine] are 5.65 and 6.99.
With `COCCNS(=O)(=O)c1cccc(Nc2ncc(C)c(Nc3ccc(CNS(=O)(=O)C4CC4)cc3)n2)c1` [Compound I-184, N4-(4-cyclopropylsulfonylaminomethyl)phenyl-N2-[3-(2-methoxyethyl)aminosulfonyl]phenyl-5-methyl-2,4-pyrimidinediamine], the pIC50 in assay [1] was 5.85; in assay [2] it was 7.01.
Regarding `CNS(=O)(=O)c1cc(Nc2ncc(C)c(Nc3ccc(CNS(=O)(=O)C4CC4)cc3)n2)ccc1C` [Compound I-185, N4-(4-cyclopropylsulfonylaminomethyl)phenyl-5-methyl-N2-(4-methyl-3-methylaminosulfonyl)phenyl-2,4-pyrimidinediamine], the pIC50 in assay [1] is 5.39; in assay [2], 7.07.
For `CCNS(=O)(=O)c1cc(Nc2ncc(C)c(Nc3ccc(CNS(=O)(=O)C4CC4)cc3)n2)ccc1C` [Compound I-186, N4-(4-cyclopropylsulfonylaminomethyl)phenyl-N2-(3-ethylaminosulfonyl-4-methyl)phenyl-5-methyl-2,4-pyrimidinediamine], in that order: 5.75 and 7.14.
The corresponding values for `CCCNS(=O)(=O)c1cc(Nc2ncc(C)c(Nc3ccc(CNS(=O)(=O)C4CC4)cc3)n2)ccc1C` [Compound I-187, N4-(4-cyclopropylsulfonylaminomethyl)phenyl-5-methyl-N2-(4-methyl-3-propylaminosulfonyl)phenyl-2,4-pyrimidinediamine] are 5.62 and 6.76.
On to `C#CCNS(=O)(=O)c1cc(Nc2ncc(C)c(Nc3ccc(CNS(=O)(=O)C4CC4)cc3)n2)ccc1C` [Compound I-188, N4-(4-cyclopropylsulfonylaminomethyl)phenyl-5-methyl-N2-(4-methyl-3-propargylaminosulfonyl)phenyl-2,4-pyrimidinediamine], for which the pIC50 in assay [1] is 5.29; in assay [2], 6.71.
As to `Cc1ccc(Nc2ncc(C)c(Nc3ccc(CNS(=O)(=O)C4CC4)cc3)n2)cc1S(=O)(=O)NC(C)C` [Compound I-189, N4-(4-cyclopropylsulfonylaminomethyl)phenyl-N2-(3-isopropylaminosulfonyl-4-methyl)phenyl-5-methyl-2,4-pyrimidinediamine], the pIC50 in assay [1] is 5.77; in assay [2] it was 6.81.
Regarding `COCCNS(=O)(=O)c1cc(Nc2ncc(C)c(Nc3ccc(CNS(=O)(=O)C4CC4)cc3)n2)ccc1C` [Compound I-190, N4-(4-cyclopropylsulfonylaminomethyl)phenyl-N2-[3-(2-methoxyethyl)aminosulfonyl-4-methyl]phenyl-5-methyl-2,4-pyrimidinediamine], the pIC50 in assay [1] is 5.87; in assay [2], 6.73.
For `COCCCNS(=O)(=O)c1cc(Nc2ncc(C)c(Nc3ccc(CNS(=O)(=O)C4CC4)cc3)n2)ccc1C` [Compound I-191, N4-(4-cyclopropylsulfonylaminomethyl)phenyl-N2-[3-(3-methoxypropyl)aminosulfonyl-4-methyl]phenyl-5-methyl-2,4-pyrimidinediamine], the figures for the pIC50 in assay [1] and in assay [2] were 5.51 and 6.61, respectively.
With `Cc1ccc(Nc2ncc(C)c(Nc3ccc(CNS(=O)(=O)C4CC4)cc3)n2)cc1S(=O)(=O)NCC1CC1` [Compound I-192, N2-(3-cyclopropylmethylaminosulfonyl-4-methyl)phenyl-N4-(4-cyclopropylsulfonylaminomethyl)phenyl-5-methyl-2,4-pyrimidinediamine], the pIC50 in assay [1] is 5.64; in assay [2], 6.59.
On to `Cc1ccc(Nc2ncc(C)c(Nc3ccc(CNS(=O)(=O)C4CC4)cc3)n2)cc1S(=O)(=O)NCc1ccccc1` [Compound I-195, N2-(3-benzylaminosulfonyl-4-methyl)phenyl-N4-(4-cyclopropylsulfonylaminomethyl)phenyl-5-methyl-2,4-pyrimidinediamine], for which the pIC50 in assay [1] is 5.45; in assay [2] it was 6.64.
As for `Cc1ccc(Nc2ncc(C)c(Nc3ccc(CNS(=O)(=O)C4CC4)cc3)n2)cc1S(=O)(=O)Nc1ccccc1` [Compound I-202, N4-(4-cyclopropylsulfonylaminomethyl)phenyl-5-methyl-N2-(4-methyl-3-phenylaminosulfonyl)phenyl-2,4-pyrimidinediamine], the pIC50 in assay [1] is 5.22; in assay [2], 6.32.
